Data on one compound can be found in patent publication US20060127384A1, “Coenzyme Q10 as antiapoptotic agent” (priority 2004, published 2006).

SMILES strings stand for the structures.

One assay has as its system caspase 3. Description: Quantification of caspase 3 in adipocytes by Western blotting and densitometry. The format is cell-based, human. As to the method:
(§1) Quantification of Apoptotic Factors (cytocrome c, caspase 3 and 9)
(§2) Adipocytes have been collected both manually using a “Luer-lock” 10 cc. syringe following Coleman's technique, and by a liposuctor with a negative pressure adjusted to maintain −680 mmHg. After the collection, half of the sample was treated with coenzyme Q10 dissolved in Lutrol (or another amphipathic molecule) at 10 μM concentration, as reported in previous works (1, 3). The other half of collected sample was treated with Lutrol (or another amphipathic molecule) alone. Both samples were then -centrifuged. The interphase and cell pellet were collected, following Coleman's technique (6) and maintained in liquid Nitrogen.
(§3) Preparation of protein cell lysates (6) is a modification of the -method described by Rioux (7).
(§4) Liposucted cell suspensions were centrifuged at 800 g for 10 minutes. 1 ml of lysis buffer (0.75 M NaCl, 10 mM HEPES, 1 mM EDTA, 1% Triton-X-100) containing a protease inhibitor mixture (final concentrations 1 μg/ml leupeptin, 10 μg/ml benzamidine, 1 μg/ml chymostatin, 1 μg/ml pepstatin A and 100 μg/ml PMSF) was added and the cell pellet was sonicated two times successively (20 sec, 100 W) to obtain whole cellular lysate. The lysate was further cleared by centrifugation at 10.000 g for 30 min in mini centrifuge. After removing the fat layer and the pellet of cellular debris, the protein content was quantified with Bradford reagent by spectrophotometry. Protein lysates (30 μg/lane) were separated by SDS-PAGE (10 and 15%) and analysed by Western blot analysis with specific antibodies.
(§5) Quantification of apoptotic factors was performed by densitometry.

Another assay has as its system caspase 9. The assay can be described thus: Quantification of caspase 9 in adipocytes by Western blotting and densitometry. The format is cell-based, human. As to the method: as §1, §2, §3, §4, §5
In another assay the test system is cytochrome C. The assay can be described thus: Dosage of cytoplasmic cytochrome C in adipocytes by Western blotting. To be noted: liposucted adipocytes, Western blot (FIG. 1). The class given is cell-based, human. As to the method:
as §1, §2, §3
Liposucted cell suspensions were centrifuged at 800 g for 10 minutes. […] After removing the fat layer and the pellet of cellular debris, the protein content was quantified with Bradford reagent by spectrophotometry. Protein lysates (30 μg/lane) were separated by SDS-PAGE (10 and 15%) and analysed by Western blot analysis with specific antibodies.
as §5
(In general: Immunoblotting shows a protein as a band on a membrane.)

The test system of the next assay is skin grafts. The assay can be described thus: Apoptotic cells in skin grafts (Hoechst staining / in situ TUNEL). The format is cell-based, human. How it is done:
FIG. 4. Appearance of skin grafts untreated or treated with coenzyme Q10 and stained with in situ TUNEL.
FIG. 5. Number of apoptotic cells in skin grafts untreated or treated with coenzyme Q10 and stained with in situ TUNEL. Values are expressed as percentage of total cells (living+dead cells).
Isolated adipocytes in suspension were fixed with 4% paraformaldehyde for 20 min at RT (room temperature), washed 3 times with PBS and permeabilized for 5 min with 0.25% Triton X-100 in PBS solution. Washes with PBS were repeated 3 times for 5 min each time and the cells were stained with Hoechst 33258 (Sigma) nuclear dye for 30 min at 37° C. followed by washing in PBS 3 times for 5 min.
(§6) The stained cells (10^4) were affixed to polylysine-treated glass slides by gentle cyto-centrifugation or by spreading the cellular film directly on the surface, of the glass slide and mounted. Nuclear staining was examined under Nikon fluorescence microscope (20× and 40× magnification) equipped with camera. The results are expressed as the percentage of apoptotic cells (number of apoptotic cells/100 counted cells) in 10 random fields, performed by 3 independent observers.

The test system of the next assay is adipocytes. The assay can be described thus: Apoptotic events in adipocytes from explanted tissues. To be noted: adipocytes maintained in the presence of coenzyme Q10. The class given is cell-based, human. How it is done:
Isolation of Adipocytes from Adipose Tissue
Modification of protocol described by Flower et al., Cytokine 21 (2003) 32-37.
For isolation, adipocyte tissue was quickly thawed, dissected with scissors into fine fragments in-digest solution consisting of Hank's buffer, supplemented with 2 mg/ml of collagenase (Type II, Sigma) and 1.5% BSA, and incubated at 37° C. for 1 hour in shaker-heater bath. The ratio of digest solution to adipose tissue was 4:1. The tissue digest was filtered through 200 μm Nylon mesh fabric in order to remove non digested tissue fragments. The adipocyte-containing layer and free oil were separated from the resulting stromovascular cell suspension by repeated centrifugation at 250×g for 5 minutes at 4° C. All the cells retrieved were morphologically typical mature adipocytes.
Detection of Apoptotic Adipocytes by Hoechst Staining […]
as §6

The test system of another assay is cultured keratocytes. To be noted: excimer laser irradiation; cited from earlier work.
Assay [1] relates to mitochondrial Permeability Transition Pore (mPTP). To be noted: in response to any apoptotic stimulus; cited from earlier work.
Where [2] appears, read: adipocytes collected manually (Luer-lock syringe) and by liposuctor, 10 μM in Lutrol, vs untreated samples.
[3] abbreviates: adipocytes collected with Coleman's technique, added prior to centrifugation and purification.
[4] abbreviates: cells from explanted tissues after ex vivo treatments, in the presence of coenzyme Q10.

`COC1=C(OC)C(=O)C(C/C=C(\C)CC/C=C(\C)CC/C=C(\C)CC/C=C(\C)CC/C=C(\C)CC/C=C(\C)CC/C=C(\C)CC/C=C(\C)CC/C=C(\C)CCC=C(C)C)=C(C)C1=O` [coenzyme Q10, 2.3-dimethoxy-5-methyl-6-multiprenyl-1.4-benzoquinone]: the “reduction of caspase 3 activity compared to controls (FIG. 2)” value in the assay on caspase 3 (setting [2]) is listed as about 50%. The “caspase 3 activity evaluated by Western blotting” value with caspase 3 (setting [3]) is listed as “dramatically reduced”. In the assay with caspase 3 (setting [4]), the “reduction of caspase 3 level” value is reported as “more than 50%”. The “reduction of caspase 9 activity compared to controls (FIG. 2)” value in the assay with caspase 9 (setting [2]) is given as about 50%. For the same compound, in the assay with caspase 9 (setting [3]), the “caspase 9 activity evaluated by Western blotting” value was “dramatically reduced”. Further, the “reduction of caspase 9 level” value in the assay on caspase 9 (setting [4]) is “more than 50%”. Moreover, the “translocation of cytochrome C to cytosol” value in the assay on cytochrome C was “significantly inhibited”. Further, the “number of apoptotic events” value with skin grafts (cutaneous cells maintained in the presence of coenzyme Q10) and in the assay with adipocytes was “significantly reduced” throughout. For the same compound, the “percentage of apoptotic cells” value in the assay with skin grafts (skin graft, glass slides of treated vs non treated cells (FIG. 4)) is “dramatically lower”. The cell morphology entry in the assay on skin grafts (skin graft, treated cells, non treated cells showed nuclear condensation and fragmentation) is “normal morphology of a living cell”. The “number of apoptotic cells” value with skin grafts (skin grafts immersed in coenzyme Q10-saline solution (FIG. 5)) is “drastically decreased”. In addition, the apoptosis entry in the assay with cultured keratocytes is on record as “able to inhibit apoptosis”. In addition, the “disruption of mitochondrial transmembrane electrochemical gradient and opening of mPTP” value in assay [1] is on record as “directly inhibits”.
